The source of these data is ChEMBL document CHEMBL1201862, “PubChem BioAssay data set” (2004).

The target in experiment [1] is T1, NADPH oxidase 1 (Homo sapiens, UniProt Q9Y5S8).
T1 sequence (Q9Y5S8 whole entry): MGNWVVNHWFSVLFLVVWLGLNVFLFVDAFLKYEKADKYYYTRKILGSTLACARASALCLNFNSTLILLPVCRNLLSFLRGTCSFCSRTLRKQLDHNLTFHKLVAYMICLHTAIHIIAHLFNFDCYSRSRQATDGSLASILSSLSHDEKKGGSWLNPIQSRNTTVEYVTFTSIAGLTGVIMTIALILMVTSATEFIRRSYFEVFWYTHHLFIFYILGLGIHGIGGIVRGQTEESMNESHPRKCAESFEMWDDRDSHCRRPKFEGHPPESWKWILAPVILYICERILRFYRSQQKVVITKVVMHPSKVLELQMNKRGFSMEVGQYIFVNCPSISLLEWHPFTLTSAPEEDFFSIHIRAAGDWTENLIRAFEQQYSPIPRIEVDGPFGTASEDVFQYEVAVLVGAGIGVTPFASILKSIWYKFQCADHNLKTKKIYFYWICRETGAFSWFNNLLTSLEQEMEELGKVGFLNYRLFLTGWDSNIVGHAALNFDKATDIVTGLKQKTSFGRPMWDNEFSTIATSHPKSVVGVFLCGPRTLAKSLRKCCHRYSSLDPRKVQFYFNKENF
Description: Luminescence-based cell-based dose response assay to identify inhibitors of NADPH oxidase 1 (NOX1). The class given is functional.

Experiment [2] addresses Induced myeloid leukemia cell differentiation protein Mcl-1 (Homo sapiens, UniProt Q07820). Type of experiment: functional.
The nature of experiment [3]: viability of HCT116 lacking mutant beta-catenin – cell-based, human colon tumor, dose response (AID 1045).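 Note: HCT116 colon tumor cells with beta catenin knocked out; cells exposed to compound for 60 hours.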 The class given is functional.
The target in experiment [4] is T2, Neuropeptide Y receptor type 2 (Homo sapiens, UniProt P49146).
T2 sequence (P49146 whole entry): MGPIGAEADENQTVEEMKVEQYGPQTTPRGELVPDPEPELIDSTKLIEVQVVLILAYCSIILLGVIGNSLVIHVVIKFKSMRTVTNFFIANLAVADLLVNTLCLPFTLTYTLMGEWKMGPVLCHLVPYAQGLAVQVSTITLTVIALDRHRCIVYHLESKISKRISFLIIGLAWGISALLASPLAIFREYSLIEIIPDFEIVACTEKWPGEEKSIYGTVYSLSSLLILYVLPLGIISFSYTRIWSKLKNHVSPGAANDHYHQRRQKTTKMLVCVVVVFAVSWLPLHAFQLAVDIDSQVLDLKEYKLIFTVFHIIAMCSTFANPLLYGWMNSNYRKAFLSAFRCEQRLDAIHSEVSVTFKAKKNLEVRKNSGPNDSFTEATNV
Type of experiment: functional, cell-based.

Experiment [5] has as its target T3, Neuropeptide Y receptor type 1 (Homo sapiens, UniProt P25929).
T3 sequence (P25929 whole entry): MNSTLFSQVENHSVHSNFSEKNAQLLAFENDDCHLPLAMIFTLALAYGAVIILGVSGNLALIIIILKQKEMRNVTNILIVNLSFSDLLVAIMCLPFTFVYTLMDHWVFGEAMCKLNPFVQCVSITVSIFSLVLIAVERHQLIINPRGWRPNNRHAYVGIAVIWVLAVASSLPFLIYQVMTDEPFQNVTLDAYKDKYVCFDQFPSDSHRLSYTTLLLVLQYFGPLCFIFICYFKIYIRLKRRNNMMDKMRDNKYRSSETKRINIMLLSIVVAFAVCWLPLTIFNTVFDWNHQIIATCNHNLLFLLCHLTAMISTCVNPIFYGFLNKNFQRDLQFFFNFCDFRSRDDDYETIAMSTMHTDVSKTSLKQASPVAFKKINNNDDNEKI
The class given is functional.

The nature of experiment [6]: viability of PTEN-deleted HCT116 cells – cell-based, HCT116 PTEN knockout, dose response (AID 1047).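 Note: HCT116 colon tumor cells with PTEN knocked out; cells exposed to compound for 60 hours before readout; potency for loss of cell viability measured by luminescence.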 Type of experiment: functional.
Experiment [7] can be described thus: NIH3T3 cell viability loss – ATP luminescence, mouse fibroblasts, counter-screen, dose response (AID 2010).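 Note: cells exposed to compound for about 90 hours before reading.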 Type of experiment: functional, cell-based. For orientation: Counterscreens check selectivity or assay interference.
In experiment [8] the target is Sphingosine 1-phosphate receptor 3 (Homo sapiens, UniProt Q99500). Nature of the experiment: Dose response cell-based high throughput screening assay for antagonists of the Sphingosine 1-Phosphate Receptor 3 (S1P3). [Related pubchem assays: 1429, 485 ]. The class given is functional.
Sphingosine 1-phosphate receptor 3, sequence (Q99500 whole entry): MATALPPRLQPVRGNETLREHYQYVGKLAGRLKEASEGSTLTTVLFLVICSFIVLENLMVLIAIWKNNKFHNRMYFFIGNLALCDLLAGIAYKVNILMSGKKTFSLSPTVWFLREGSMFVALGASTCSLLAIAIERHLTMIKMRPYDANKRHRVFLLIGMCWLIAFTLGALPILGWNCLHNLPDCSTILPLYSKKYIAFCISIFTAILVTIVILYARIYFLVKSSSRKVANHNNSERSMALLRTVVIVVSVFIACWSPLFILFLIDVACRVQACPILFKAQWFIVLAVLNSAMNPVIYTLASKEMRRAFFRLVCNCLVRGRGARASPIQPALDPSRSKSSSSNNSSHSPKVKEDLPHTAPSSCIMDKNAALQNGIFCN
The nature of experiment [9]: Trypanosoma cruzi growth suppression in host cells – NIH3T3 host cells, beta-gal luminescence, confirmation (AID 2044).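 Note: intracellular parasites grown in NIH/3T3 mouse fibroblasts as host cells; luminescent beta-galactosidase reporter signal from transgenic T. cruzi replicating inside host cells; inhibitors lower the luminescence signal.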 The class given is functional, cell-based.
A short description of experiment [10]: viability of uninfected HEp-2 cells – cell-based, HTS, cytotoxicity control for RSV inhibitor project, dose response (AID 2410). Type of experiment: functional. The note with it: human respiratory syncytial virus.
Experiment [11] addresses 5-hydroxytryptamine receptor 1E (Homo sapiens, UniProt P28566). Nature of the experiment: Counterscreen assay for S1P3 antagonists: Dose response cell-based high throughput screening assay to identify antagonists of the 5-Hydroxytryptamine Receptor Subtype 1E (5HT1E). [Related pubchem assays: 1429, 485 ]. Type of experiment: functional.
Experiment [12] can be described thus: A High Throughput Confirmatory Assay used to Identify Novel Compounds that Inhibit Mycobacterium Tuberculosis in the absence of Glycerol. The class given is functional.
The target of experiment [13] is T4, Heat shock 70 kDa protein 1A (Homo sapiens, UniProt P0DMV8). Nature of the experiment: small-molecule inhibition of Hsp70 – biochemical, TR-FRET (AID 786). A general note: TR-FRET usually uses a lanthanide donor and a delayed reading to cut background.
T4 sequence (P0DMV8 whole entry): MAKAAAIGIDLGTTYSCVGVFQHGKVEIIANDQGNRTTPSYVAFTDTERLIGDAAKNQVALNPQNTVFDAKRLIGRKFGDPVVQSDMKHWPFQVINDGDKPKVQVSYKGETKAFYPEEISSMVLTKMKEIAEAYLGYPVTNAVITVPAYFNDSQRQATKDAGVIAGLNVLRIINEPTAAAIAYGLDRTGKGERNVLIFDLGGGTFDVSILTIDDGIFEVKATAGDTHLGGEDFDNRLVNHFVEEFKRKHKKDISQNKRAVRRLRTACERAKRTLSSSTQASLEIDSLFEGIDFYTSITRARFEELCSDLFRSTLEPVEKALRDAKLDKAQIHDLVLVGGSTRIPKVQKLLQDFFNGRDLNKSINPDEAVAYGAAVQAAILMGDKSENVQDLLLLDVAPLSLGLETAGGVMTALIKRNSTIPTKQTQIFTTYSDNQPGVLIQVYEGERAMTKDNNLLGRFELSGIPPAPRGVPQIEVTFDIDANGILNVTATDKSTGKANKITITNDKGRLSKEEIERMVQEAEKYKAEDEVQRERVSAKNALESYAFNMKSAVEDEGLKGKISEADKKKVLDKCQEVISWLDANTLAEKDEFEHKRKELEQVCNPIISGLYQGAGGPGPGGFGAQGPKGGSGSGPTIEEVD
The target in experiment [14] is T4, Heat shock 70 kDa protein 1A. Nature of the experiment: small molecules displacing fluorescent ligand from Hsp70 – biochemical, fluorescence polarization, primary screen (AID 583).
Experiment [15] in a line: reduction of Shn3 3'UTR-driven luciferase in osteoblasts – cell-based, Clone20 osteoblasts, firefly luciferase, cherry-picked, dose response (AID 624132).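 Note: firefly luciferase luminescence from reporter carrying the Shn3 3'UTR in osteoblasts.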 The class given is functional.
The nature of experiment [16]: Shn3 3'UTR reporter signal decrease – cell-based, Clone20 osteoblasts, firefly luciferase, cherry-pick, set 2, Schnurri-3 inhibitor project, dose response (AID 720490).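 Note: actives lower the luminescence signal as inhibitors.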 The class given is functional.
Experiment [17] in a line: HIV-1 AD8 envelope cell-cell fusion blockers – cherry-pick, dose response (AID 652062).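 Note: luciferase signal from cell-cell fusion driven by HIV-1 clade B AD8 Env; potency is for inhibitors of fusion seen as a drop in luminescence.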 The class given is functional, cell-based.
Experiment [18] can be described thus: blockers of bursicon-stimulated LGR2 cAMP reporter – cell-based, HEK293, CRE-luciferase reporter, cherry pick, set 2, dose response (AID 743343).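 Note: transfected cells were stimulated with diluted bursicon conditioned medium after compound addition.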 Type of experiment: functional. (In general: A reporter such as luciferase makes a cellular process visible.)
Experiment [19] can be described thus: toxicity toward HepG2 liver cells – cell-based, plate reader, cherry-pick, antagonist series, cytotoxicity control, dose response (AID 743416). The class given is functional.
Experiment [20] is described as follows: blockade of melanocortin 4 receptor signaling – cell-based, plate reader, cherry pick, counter-screen for LGR2 antagonist project, dose response (AID 743444).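 Note: transfected HEK 293 cells stimulated with alpha-MSH peptide; potency of inhibitors of the alpha-MSH evoked signal.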 The class given is functional.
Experiment [21] in a line: off-target signal loss in HeLa-CEM21 co-culture – HeLa F-luc CTL cells, cherry-picked, counter-screen for HIV-1 Env fusion inhibitor project, dose response (AID 652040).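 Note: potency for signal decrease marking cytotoxic or nonspecific inhibition.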 Type of experiment: functional, cell-based.
Experiment [22] in a line: blockers of HIV-1 envelope-mediated cell-cell fusion – cherry-pick, dose response (AID 652057). Type of experiment: functional, cell-based.
Experiment [23] in a line: Luminescence-based counterscreen assay for KLF5 inhibitors: dose response cell-based high throughput screening assay to identify cytotoxic compounds using the IEC-6 intestinal epithelial cell line. [Related pubchem assays: 1700 (Primary screen.), 1834 (Confirmation screen.), 1858 (Summary AID.), 1905 (Counterscreen.)]. The class given is functional.
The nature of experiment [24]: HEK-293T viability loss after treatment – luminescence, T-cell screen hits, cytotoxicity control for TCR NF-kB inhibitor project, dose response (AID 489026).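 Note: cells exposed to compound about 14 hours before the viability readout.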 Type of experiment: functional, cell-based.
Experiment [25] has as its target T5, Bcl-2-like protein 10 (Homo sapiens, UniProt Q9HD36).
T5 sequence (Q9HD36 whole entry): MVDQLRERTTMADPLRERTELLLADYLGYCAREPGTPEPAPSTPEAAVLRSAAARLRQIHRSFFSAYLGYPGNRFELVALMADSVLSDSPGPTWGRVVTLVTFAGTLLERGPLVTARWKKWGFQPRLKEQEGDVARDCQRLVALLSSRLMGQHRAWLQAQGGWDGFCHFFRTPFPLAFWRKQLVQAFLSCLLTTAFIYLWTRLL
Description: Concentration-response of Bcl-B inhibitors by biochemical FP with TR3 (AID 1243). The class given is functional.

Experiment [26] addresses NS3 (Hepatitis C virus, UniProt A3EZJ3). Nature of the experiment: PubChem AID 2173. The arrangement: species or system Hepacivirus hominis.
Experiment [27] addresses T6, Estrogen receptor (Homo sapiens, UniProt P03372).
T6 sequence (P03372 whole entry): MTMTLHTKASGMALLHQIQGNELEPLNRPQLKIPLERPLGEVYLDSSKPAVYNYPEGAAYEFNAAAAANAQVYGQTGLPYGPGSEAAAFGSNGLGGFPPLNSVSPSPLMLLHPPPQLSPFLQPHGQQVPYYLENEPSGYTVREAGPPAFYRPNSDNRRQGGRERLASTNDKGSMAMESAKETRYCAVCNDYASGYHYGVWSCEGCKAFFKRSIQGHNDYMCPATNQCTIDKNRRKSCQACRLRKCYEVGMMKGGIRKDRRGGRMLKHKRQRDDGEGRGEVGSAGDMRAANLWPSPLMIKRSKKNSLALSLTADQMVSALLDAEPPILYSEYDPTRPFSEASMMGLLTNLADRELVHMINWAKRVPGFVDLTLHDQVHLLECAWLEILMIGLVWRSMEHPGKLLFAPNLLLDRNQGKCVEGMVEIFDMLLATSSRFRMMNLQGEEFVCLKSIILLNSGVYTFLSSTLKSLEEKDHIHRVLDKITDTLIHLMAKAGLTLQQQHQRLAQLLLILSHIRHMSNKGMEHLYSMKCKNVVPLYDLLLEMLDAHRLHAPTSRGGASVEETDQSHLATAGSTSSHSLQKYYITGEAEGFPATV

Experiment [28] concerns the target T7, Estrogen receptor beta (Homo sapiens, UniProt Q92731). Nature of the experiment: blockers of SRC-3 recruitment to ERβ – biochemical, ELISA, streptavidin-HRP readout, orthogonal assay, confirmation (AID 1060).
Experiment [29] concerns the target T7, Estrogen receptor beta.
Experiment [30] has as its target T3, Neuropeptide Y receptor type 1. Description: IC50 of human NPY-Y1 blockers – cell-based, dose response (AID 1277). Type of experiment: functional.
The target in experiment [31] is T2, Neuropeptide Y receptor type 2. Nature of the experiment: IC50 for human NPY-Y2 blockade – cell-based, counter-screen for NPY-Y1 antagonist project, dose response (AID 1278). The class given is functional.
The target of experiment [32] is Epstein-Barr nuclear antigen 1 (Epstein-Barr virus (strain B95-8) (HHV-4) (Human herpesvirus 4), UniProt P03211). Description: inhibition of EBV nuclear antigen 1 DNA binding – biochemical, fluorescence polarization, 1536-well, dose response (AID 2381).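 Note: fluorescence polarization of a Cy5 DNA probe bound by EBNA-1 protein.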 The arrangement: species or system human gammaherpesvirus 4.
Epstein-Barr nuclear antigen 1, sequence (P03211 whole entry): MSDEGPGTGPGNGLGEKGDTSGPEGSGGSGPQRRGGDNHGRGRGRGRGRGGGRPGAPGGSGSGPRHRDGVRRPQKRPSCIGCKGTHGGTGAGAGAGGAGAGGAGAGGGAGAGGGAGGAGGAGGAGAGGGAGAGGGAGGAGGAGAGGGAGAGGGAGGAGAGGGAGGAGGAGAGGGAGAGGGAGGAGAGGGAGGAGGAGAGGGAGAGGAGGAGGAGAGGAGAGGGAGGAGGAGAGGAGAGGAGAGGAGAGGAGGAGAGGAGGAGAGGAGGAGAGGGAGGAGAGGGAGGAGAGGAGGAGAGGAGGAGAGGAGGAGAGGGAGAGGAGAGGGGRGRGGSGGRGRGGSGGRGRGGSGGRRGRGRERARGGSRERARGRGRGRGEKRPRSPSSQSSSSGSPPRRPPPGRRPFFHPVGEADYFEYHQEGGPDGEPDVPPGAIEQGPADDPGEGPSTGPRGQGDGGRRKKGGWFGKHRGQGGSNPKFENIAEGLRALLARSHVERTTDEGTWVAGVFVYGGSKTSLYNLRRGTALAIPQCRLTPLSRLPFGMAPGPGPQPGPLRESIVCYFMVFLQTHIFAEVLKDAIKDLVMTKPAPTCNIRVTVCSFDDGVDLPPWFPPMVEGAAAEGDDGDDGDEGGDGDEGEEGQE
Experiment [33] deals with Lytic switch protein BZLF1 (Epstein-Barr virus (strain B95-8) (HHV-4) (Human herpesvirus 4), UniProt P03206). Nature of the experiment: inhibition of BZLF1 ZTA DNA binding – biochemical, fluorescence polarization, Epstein-Barr virus, 1536-well, counter-screen for EBNA-1 inhibitor project, dose response (AID 2377).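 Note: fluorescence polarization of Cy5-labelled ZRE DNA probe bound by purified Zta.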 More on the design: species or system human gammaherpesvirus 4.
Lytic switch protein BZLF1, sequence (P03206 whole entry): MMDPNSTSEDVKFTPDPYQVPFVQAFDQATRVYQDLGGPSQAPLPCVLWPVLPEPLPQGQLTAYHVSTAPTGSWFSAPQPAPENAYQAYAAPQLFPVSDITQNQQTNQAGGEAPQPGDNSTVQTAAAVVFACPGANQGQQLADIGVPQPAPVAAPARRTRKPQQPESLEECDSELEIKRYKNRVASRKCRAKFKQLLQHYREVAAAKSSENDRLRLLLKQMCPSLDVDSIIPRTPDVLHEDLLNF

By IC50 is commonly meant the point on the concentration scale where inhibition reaches its midpoint. What is called EC50 is the midpoint of the concentration-response curve. One may read the CC50 as the concentration that lowers cell viability or growth by half. By AC50 is commonly meant the concentration at which the activity in the assay is half-maximal.

SMILES strings stand for the structures. Calls of active or inactive are those of the source.

Induced myeloid leukemia cell differentiation protein Mcl-1, sequence (Q07820 whole entry): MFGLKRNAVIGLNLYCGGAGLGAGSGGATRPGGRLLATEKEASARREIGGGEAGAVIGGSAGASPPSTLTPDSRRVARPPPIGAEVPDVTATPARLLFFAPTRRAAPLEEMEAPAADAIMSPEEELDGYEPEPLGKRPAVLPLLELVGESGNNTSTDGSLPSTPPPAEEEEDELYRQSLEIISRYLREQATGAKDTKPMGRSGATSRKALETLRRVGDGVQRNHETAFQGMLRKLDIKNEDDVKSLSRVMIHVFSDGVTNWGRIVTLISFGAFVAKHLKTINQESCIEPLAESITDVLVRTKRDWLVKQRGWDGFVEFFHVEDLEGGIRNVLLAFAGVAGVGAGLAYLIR
T7 sequence (Q92731 whole entry): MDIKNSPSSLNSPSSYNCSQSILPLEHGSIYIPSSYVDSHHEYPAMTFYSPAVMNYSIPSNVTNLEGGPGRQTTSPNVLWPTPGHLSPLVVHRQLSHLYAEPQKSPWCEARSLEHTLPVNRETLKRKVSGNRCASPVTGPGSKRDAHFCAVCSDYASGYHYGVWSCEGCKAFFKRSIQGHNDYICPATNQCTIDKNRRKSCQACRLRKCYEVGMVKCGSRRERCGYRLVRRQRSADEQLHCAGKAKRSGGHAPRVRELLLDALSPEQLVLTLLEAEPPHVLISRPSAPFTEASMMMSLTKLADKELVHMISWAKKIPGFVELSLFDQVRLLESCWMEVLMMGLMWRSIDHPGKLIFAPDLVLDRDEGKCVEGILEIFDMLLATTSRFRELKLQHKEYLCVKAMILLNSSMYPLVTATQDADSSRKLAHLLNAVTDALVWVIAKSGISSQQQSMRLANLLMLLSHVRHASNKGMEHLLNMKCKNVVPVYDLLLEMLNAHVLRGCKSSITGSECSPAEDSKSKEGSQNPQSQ
NS3, sequence (A3EZJ3 whole entry): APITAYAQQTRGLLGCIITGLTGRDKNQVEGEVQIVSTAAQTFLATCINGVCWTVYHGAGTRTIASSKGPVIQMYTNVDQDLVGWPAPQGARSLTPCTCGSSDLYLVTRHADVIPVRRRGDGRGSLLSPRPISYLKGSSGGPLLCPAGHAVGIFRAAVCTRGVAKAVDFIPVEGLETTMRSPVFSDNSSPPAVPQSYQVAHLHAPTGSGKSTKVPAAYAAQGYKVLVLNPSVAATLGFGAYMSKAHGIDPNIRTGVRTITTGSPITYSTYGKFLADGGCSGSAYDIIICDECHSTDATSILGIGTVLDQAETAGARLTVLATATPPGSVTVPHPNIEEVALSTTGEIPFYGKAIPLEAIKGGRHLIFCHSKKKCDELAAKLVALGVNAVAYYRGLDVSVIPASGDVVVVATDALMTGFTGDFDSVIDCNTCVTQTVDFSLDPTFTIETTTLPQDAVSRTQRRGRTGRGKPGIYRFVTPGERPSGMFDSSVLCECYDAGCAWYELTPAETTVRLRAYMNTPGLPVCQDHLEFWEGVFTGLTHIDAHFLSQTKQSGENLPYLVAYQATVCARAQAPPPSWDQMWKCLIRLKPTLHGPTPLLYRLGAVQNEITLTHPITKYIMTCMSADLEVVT
5-hydroxytryptamine receptor 1E, sequence (P28566 whole entry): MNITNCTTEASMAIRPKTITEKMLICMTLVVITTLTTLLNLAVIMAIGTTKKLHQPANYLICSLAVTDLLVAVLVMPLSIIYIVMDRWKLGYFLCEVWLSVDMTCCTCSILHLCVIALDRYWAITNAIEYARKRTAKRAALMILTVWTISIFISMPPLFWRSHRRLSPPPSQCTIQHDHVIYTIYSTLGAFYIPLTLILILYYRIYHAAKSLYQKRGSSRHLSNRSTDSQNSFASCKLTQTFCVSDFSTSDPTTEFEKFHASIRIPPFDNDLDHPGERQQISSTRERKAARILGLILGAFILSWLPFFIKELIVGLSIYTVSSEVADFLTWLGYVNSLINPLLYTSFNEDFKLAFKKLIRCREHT

Turning to `CCN(CC)c1ccc(NC(=O)Nc2cccc(C(C)=O)c2)cc1`, the IC50 in [1] is 0.083 µM (active); in experiment [2], 3.13 µM (not active).

Take `Cc1cccc(N=C(S)N(CCN(C)C)Cc2cc3cc(C)cc(C)c3nc2O)c1`: the 50% effective concentration (EC50) is 18.1 µM (active) in [3] and 33.6 µM (active) in experiment [6]. For the same compound, the IC50 was 14.3 µM (not active) in [4] and 6.32 µM (active) in experiment [5].

For `CC1C(c2ccccc2)N(C)C(c2ccccc2)CC1(O)c1ccc(F)cc1` (centres undefined), the EC50 in [7] is > 60 µM (not active); in experiment [9], 2.78 µM (active). Besides, the IC50 in experiment [8] and in experiment [11] was > 50 µM (not active) each time. Besides, the CC50 in [10] is 19.4 µM (active).

For `COC(=O)[C@@H](NC(=O)O[C@@H]1C(=O)c2ccc(OC)cc2O[C@H]1c1cccc(C(F)(F)F)c1)C(C)C`, the 50% inhibitory concentration (IC50) in [12] is > 100 µM (active).

Turning to `Nc1nc2n(n1)C(c1ccco1)CC(c1ccc(Cl)cc1Cl)N2` (centres undefined), the half-maximal inhibitory concentration (IC50) in [13] and in [14] was > 100 µM (not active) each time.

As to `O=C(NCCc1ccccc1)c1ccc2c(c1)OCCO2`, the AC50 in experiment [15] was 2.16 µM (active); in [16] it was 2.31 µM (active); in experiment [17], 3.07 µM (active); in [18], 0.801 µM (active); in experiment [19] it was > 52 µM (inactive); in [20], 0.885 µM (active). For the same compound, the half-maximal activity concentration (AC50) in experiment [21] was 4.51 µM (active); in [22], 2.05 µM (active). Further, the IC50 was > 39.8 µM (not active) in experiment [23] and > 80 µM (inactive) in [24].

In the case of `O=C(O)C1Nc2c(cccc2[N+](=O)[O-])C2C=CCC12` (centres undefined), the EC50 in experiment [25] was 1.2 µM (active).

For the compound `C=CCSC1=N/C(=C\C=C\c2ccco2)C(=O)S1`, the half-inhibitory concentration (IC50) was 11 µM (not active) in [26]; > 50 µM (not active) in [27]; > 50 µM (not active) in [28]; 10.3 µM (active) in experiment [29]; 5.61 µM (active) in experiment [2].

Regarding `COc1ccccc1CN(Cc1cc2cc(C)ccc2nc1O)Cc1nnnn1Cc1ccco1`, the IC50 is given as 22.7 µM (not active) in experiment [30] and > 35 µM (not active) in [31].

For `N#Cc1ccc(N2Cc3ccccc3/C2=N/C(=O)Nc2ccc(Cl)cc2)cc1`, the IC50 is 8.14 µM (active) in experiment [32] and > 111 µM (not active) in experiment [33].
